#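 GI50: concentration for 50% inhibition of growth. TGI marks complete inhibition of growth.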
# Key:
# Assay in all cases: NCI-60 cell line screen, 384-well format
# SN12C renal = test system: SN12C renal
# KM12 colon = test system: KM12 colon
# MALME-3M melanoma = test system: MALME-3M melanoma
# UO-31 renal = test system: UO-31 renal
# HS 578T breast = test system: HS 578T breast
# NCI-H226 lung = test system: NCI-H226 lung
# T-47D breast = test system: T-47D breast
# MDA-MB-468 breast = test system: MDA-MB-468 breast
# HCT-15 colon = test system: HCT-15 colon
# SK-OV-3 ovarian = test system: SK-OV-3 ovarian
# MDA-MB-435 melanoma = test system: MDA-MB-435 melanoma
# SK-MEL-2 melanoma = test system: SK-MEL-2 melanoma
# NCI-H23 lung = test system: NCI-H23 lung
# HOP-62 NSCLC = test system: HOP-62 NSCLC
# LOX IMVI melanoma = test system: LOX IMVI melanoma
# OVCAR-4 ovarian = test system: OVCAR-4 ovarian
# OVCAR-8 ovarian = test system: OVCAR-8 ovarian
# NCI-H522 lung = test system: NCI-H522 lung
# UACC-62 melanoma = test system: UACC-62 melanoma
# HL-60(TB) leukemia = test system: HL-60(TB) leukemia
# TK-10 renal = test system: TK-10 renal
# CAKI-1 renal = test system: CAKI-1 renal
# DU-145 prostate = test system: DU-145 prostate
# RXF 393 renal = test system: RXF 393 renal
# ACHN renal = test system: ACHN renal
# HCT-116 colon = test system: HCT-116 colon
# UACC-257 melanoma = test system: UACC-257 melanoma
# OVCAR-3 ovarian = test system: OVCAR-3 ovarian
# 786-0 renal = test system: 786-0 renal
# IGROV1 ovarian = test system: IGROV1 ovarian
# EKVX NSCLC = test system: EKVX NSCLC
# MDA-MB-231 breast = test system: MDA-MB-231 breast
# M14 melanoma = test system: M14 melanoma
# U251 glioblastoma = test system: U251 glioblastoma
# K-562 leukemia = test system: K-562 leukemia
# HOP-92 NSCLC = test system: HOP-92 NSCLC
# NCI/ADR-RES ovarian = test system: NCI/ADR-RES ovarian
# A549 NSCLC = test system: A549 NSCLC
# NCI-H322M lung = test system: NCI-H322M lung
# SW-620 colon = test system: SW-620 colon
# MCF7 breast = test system: MCF7 breast
# A498 renal = test system: A498 renal
# HT29 colon = test system: HT29 colon
# BT-549 breast = test system: BT-549 breast
# RPMI-8226 leukemia = test system: RPMI-8226 leukemia
# SK-MEL-28 melanoma = test system: SK-MEL-28 melanoma
# PC-3 prostate = test system: PC-3 prostate
# OVCAR-5 ovarian = test system: OVCAR-5 ovarian
# MOLT-4 leukemia = test system: MOLT-4 leukemia
smiles,measurement,setting,value
CC/C(=C(\c1ccccc1)c1ccc(OCCN(C)C)cc1)c1ccccc1,GI50,SN12C renal,13.6 µM
same,TGI,SN12C renal,26.7 µM
same,GI50,KM12 colon,3.27 µM
same,TGI,KM12 colon,10.7 µM
same,GI50,MALME-3M melanoma,1.99 µM
same,TGI,MALME-3M melanoma,3.66 µM
same,GI50,UO-31 renal,14.9 µM
same,TGI,UO-31 renal,28.4 µM
same,GI50,HS 578T breast,14 µM
same,TGI,HS 578T breast,27.2 µM
same,GI50,NCI-H226 lung,7.96 µM
same,TGI,NCI-H226 lung,20.2 µM
same,GI50,T-47D breast,5.64 µM
same,TGI,T-47D breast,19.7 µM
same,GI50,MDA-MB-468 breast,4.92 µM
same,TGI,MDA-MB-468 breast,16 µM
same,GI50,HCT-15 colon,2.05 µM
same,TGI,HCT-15 colon,3.96 µM
same,GI50,SK-OV-3 ovarian,10.6 µM
same,TGI,SK-OV-3 ovarian,22.8 µM
same,GI50,MDA-MB-435 melanoma,7.19 µM
same,TGI,MDA-MB-435 melanoma,19.5 µM
same,GI50,SK-MEL-2 melanoma,4.1 µM
same,TGI,SK-MEL-2 melanoma,15.8 µM
same,GI50,NCI-H23 lung,10.6 µM
same,TGI,NCI-H23 lung,22.6 µM
same,GI50,HOP-62 NSCLC,12.9 µM
same,TGI,HOP-62 NSCLC,25.7 µM
same,GI50,LOX IMVI melanoma,4.94 µM
same,TGI,LOX IMVI melanoma,17 µM
same,GI50,OVCAR-4 ovarian,12.9 µM
same,TGI,OVCAR-4 ovarian,25.7 µM
same,GI50,OVCAR-8 ovarian,11.5 µM
same,TGI,OVCAR-8 ovarian,24 µM
same,GI50,NCI-H522 lung,11.4 µM
same,TGI,NCI-H522 lung,23.7 µM
same,GI50,UACC-62 melanoma,2.77 µM
same,TGI,UACC-62 melanoma,7.86 µM
same,GI50,HL-60(TB) leukemia,1.93 µM
same,TGI,HL-60(TB) leukemia,3.39 µM
same,GI50,TK-10 renal,12.7 µM
same,TGI,TK-10 renal,25.5 µM
same,GI50,CAKI-1 renal,8.23 µM
same,TGI,CAKI-1 renal,20.8 µM
same,GI50,DU-145 prostate,12.8 µM
same,TGI,DU-145 prostate,25.9 µM
same,GI50,RXF 393 renal,3.43 µM
same,TGI,RXF 393 renal,8.75 µM
same,GI50,ACHN renal,16.4 µM
same,TGI,ACHN renal,30.3 µM
same,GI50,HCT-116 colon,5.26 µM
same,TGI,HCT-116 colon,17.5 µM
same,GI50,UACC-257 melanoma,1.97 µM
same,TGI,UACC-257 melanoma,3.56 µM
same,GI50,OVCAR-3 ovarian,9.12 µM
same,TGI,OVCAR-3 ovarian,21.3 µM
same,GI50,786-0 renal,4.92 µM
same,TGI,786-0 renal,15.7 µM
same,GI50,IGROV1 ovarian,14.2 µM
same,TGI,IGROV1 ovarian,27.4 µM
same,GI50,EKVX NSCLC,14.7 µM
same,TGI,EKVX NSCLC,28.1 µM
same,GI50,MDA-MB-231 breast,11.5 µM
same,TGI,MDA-MB-231 breast,24 µM
same,GI50,M14 melanoma,1.89 µM
same,TGI,M14 melanoma,3.51 µM
same,GI50,U251 glioblastoma,5.21 µM
same,TGI,U251 glioblastoma,16.2 µM
same,GI50,K-562 leukemia,2.51 µM
same,TGI,K-562 leukemia,5.33 µM
same,GI50,HOP-92 NSCLC,14.7 µM
same,TGI,HOP-92 NSCLC,28.1 µM
same,GI50,NCI/ADR-RES ovarian,12 µM
same,TGI,NCI/ADR-RES ovarian,24.6 µM
same,GI50,A549 NSCLC,10.9 µM
same,TGI,A549 NSCLC,23.7 µM
same,GI50,NCI-H322M lung,6.11 µM
same,TGI,NCI-H322M lung,18.4 µM
same,GI50,SW-620 colon,9.21 µM
same,TGI,SW-620 colon,21.6 µM
same,GI50,MCF7 breast,1.65 µM
same,TGI,MCF7 breast,7.98 µM
same,GI50,A498 renal,4.05 µM
same,TGI,A498 renal,15 µM
same,GI50,HT29 colon,2.2 µM
same,TGI,HT29 colon,4.16 µM
same,GI50,BT-549 breast,10.7 µM
same,TGI,BT-549 breast,22.8 µM
same,GI50,RPMI-8226 leukemia,1.94 µM
same,TGI,RPMI-8226 leukemia,3.66 µM
same,GI50,SK-MEL-28 melanoma,5.35 µM
same,TGI,SK-MEL-28 melanoma,16.8 µM
same,GI50,PC-3 prostate,4.18 µM
same,TGI,PC-3 prostate,13.7 µM
same,GI50,OVCAR-5 ovarian,8.67 µM
same,TGI,OVCAR-5 ovarian,21 µM
same,GI50,MOLT-4 leukemia,2.56 µM
same,TGI,MOLT-4 leukemia,6 µM

# From PubChem BioAssay (NCI)
